# Reference: patent EP1222194B1, “7-ACYLAMINO-3-HETEROARYLTHIO-3-CEPHEM CARBOXYLIC ACID ANTIBIOTICS AND PRODRUGS THEREOF” (priority 1999, dated 2001)
# Where two headings read alike, the source gives them in different places.
# Legend:
# [1] = system: S. aureus ATCC 13709 (Smith diffuse); assay: Murine model for lethal bacteremic peritonitis (septicemia); format: in vivo, mice; conditions: for ED50: Staphylococcus aureus, ATCC13709, sc, read-out: Efficacy in murine septicemia ED50; for Efficacy in murine septicemia %survival: subcutaneously at 0 and 2 hrs post-challenge
# Protocol: 10 mice/group were injected intraperitoneally with 2.98x10^7 cfu S. aureus ATCC 13709 (Smith diffuse) and treated at 0 and 2hrs post-challenge with serial two-fold doses of new cephalosporin antibiotic, imipenem and vancomycin subcutaneously in order to determine the ED50. Male Swiss-Webster mice weighing originally 24.2 - 26.1 g were obtained from Charles Rivers Labs, Hollister, CA. Mice were housed 10 per cage and given free access to water and mouse chow.
# Staphylococcus aureus ATCC 13709 (Smith diffuse) was grown overnight at 37 °C in Brain-heart Infusion broth (BHIB). The following morning, it was subcultured to fresh BHIB and incubated for 4-5h at 37 °C. The log-phase growth cells were washed once with physiological saline and adjusted to the desired concentration by correlation of absorbency at OD 600 nm with predetermined plate counts (NCCLS, 1994). The cell suspension was mixed with an equal volume of sterile 14% hog-gastric mucin (2). Inoculum was kept in an ice bath until used (<1h).
# Mice were challenged via an injection of 0.5 mL bacterial suspension intraperitoneally. The bacterial challenge was 2.98 x 10^7 cfu/mouse.
# Imipenem (Primaxin IV; Lot 7294A), vancomycin (Vancocin; Lot 8MU60W), and new cephalosporin antibiotic were prepared by serial two-fold dilutions to concentrations of 0.078 - 0.005 mg/mL, 1.2 - 0.075 mg/mL, 0.3 - 0.02 mg/mL, 0.3 - 0.02 mg/mL and 0.3 - 0.02 mg/mL respectively in sterile water (1). All antibiotics were administered subcutaneously in 0.1 mL volumes at 0 and 2 hours post-challenge. Concentrations of all compounds are based on the weight of the bioactive ingredients.
# The 50% effective dose (ED50) was calculated by the probit method (3) utilizing a program entitled Probit (Nycomed-Salutar).
# [2] = system: S. aureus Col8A(Meth^S)(lac^-); assay: Broth microdilution MIC (NCCLS); format: cell-based; conditions: Staphylococcus aureus, Mueller-Hinton Broth, 24 h at 35 °C
# Protocol: (§1) Compounds were evaluated for antimicrobial activity against a panel of bacterial strains using a broth microdilution assay performed as recommended by the NCCLS (1). The minimum inhibitory concentration (MIC) was defined as the lowest concentration of drug which prevented the growth of the bacteria. The following 16 organisms constituted the primary panel of evaluation:
# (§2) For this primary panel, the assay was performed in Mueller-Hinton Broth (MHB) with a final bacterial inoculum of 5 x 10^5 CFU/mL (from an early-log phase culture) and a final volume of 100 µL. Control drugs, including imipenem, vancomycin, Penicillin G, dicloxacillin (vs. MSSA ATCC29213 only), and new compounds were prepared at a concentration equivalent to 2-fold the desired final concentration. Dilution of compounds were prepared directly in the plates by serial 2-fold dilution using a multichannel pipette. Positive and negative growth control were included in each plate.
# (§3) The bacterial inocula were prepared as follows. For each strain one isolated colony was used to inoculate a volume of 8 mL of Mueller-Hinton broth and these cultures were incubated overnight (20h) at 35 °C in a shaking incubator. At the exception of Enterococcus strains, culture were then diluted 1:10 and allowed to grow for an additional one hour at 35 °C in a shaking incubator. The inocula were prepared by diluting the early log-phase (1h) cultures 1:1000 with fresh Mueller-Hinton broth. E. faecium and E. faecalis were prepared by diluting overnight cultures 1:333 and 1:666, respectively, with fresh Mueller-Hinton broth . A volume of 50 µL of the inocula was added to each well. […] The exact inocula were determined by applying […] of 10-fold serial dilution of the bacterial suspensions on TSA. After overnight incubation at 35 °C, colony forming units were manually counted.
# (§4) Microtiter plates were incubated during 24 h at 35 °C and were read using a microtiterplate reader (Molecular Devices) at 650 nm as well as by visual observation using a microtiterplate reading mirror.
# [3] = system: S. aureus ATCC 33593 (Meth^R); assay: Broth microdilution MIC (NCCLS); format: cell-based; conditions: Staphylococcus aureus, ATCC33593, Mueller-Hinton Broth, 24 h at 35 °C
# Protocol: as §1, §2, §3, §4
# [4] = system: E. faecalis ATCC 29212; assay: Broth microdilution MIC (NCCLS); format: cell-based; conditions: Enterococcus faecalis, ATCC29212, Mueller-Hinton Broth, 24 h at 35 °C
# Protocol: as §1, §2, §3, §4
# [5] = system: E. coli ATCC25992; assay: Broth microdilution MIC (NCCLS); format: cell-based; conditions: Escherichia coli, Mueller-Hinton Broth, 24 h at 35 °C
# Protocol: as §1, §2, §3, §4
# [6] = system: E. faecium ATCC 35667; assay: Broth microdilution MIC (NCCLS); format: cell-based; conditions: Enterococcus faecium, ATCC35667, Mueller-Hinton Broth, 24 h at 35 °C
# Protocol: as §1, §2, §3, §4
# [7] = system: P. aeruginosa ATCC 27853; assay: Broth microdilution MIC (NCCLS); format: cell-based; conditions: Pseudomonas aeruginosa, ATCC27853, Mueller-Hinton Broth, 24 h at 35 °C
# Protocol: as §1, §2, §3, §4
# [8] = system: S. aureus ATCC 13709 (Meth^S); assay: Broth microdilution MIC (NCCLS); format: cell-based; conditions: Staphylococcus aureus, ATCC13709, Mueller-Hinton Broth, 24 h at 35 °C
# Protocol: as §1, §2, §3, §4
# [9] = system: S. aureus ATCC 29213; assay: Broth microdilution MIC (NCCLS); format: cell-based; conditions: Staphylococcus aureus, ATCC29213, Mueller-Hinton Broth, 24 h at 35 °C
# Protocol: as §1, §2, §3, §4
# [10] = system: E. faecium VanA (Van^R); assay: Broth microdilution MIC (NCCLS); format: cell-based; conditions: Enterococcus faecium, Mueller-Hinton Broth, 24 h at 35 °C
# Protocol: as §1, §2, §3, §4
# [11] = system: E. faecalis VanB (Van^R); assay: Broth microdilution MIC (NCCLS); format: cell-based; conditions: Enterococcus faecalis, Mueller-Hinton Broth, 24 h at 35 °C
# Protocol: as §1, §2, §3, §4
# [12] = system: S. haemolyticus 05 (Meth^R); assay: Broth microdilution MIC (NCCLS); format: cell-based; conditions: Staphylococcus haemolyticus, Mueller-Hinton Broth, 24 h at 35 °C
# Protocol: as §1, §2, §3, §4
# [13] = system: S. aureus 76 (Meth^R)(lac^+); assay: Broth microdilution MIC (NCCLS); format: cell-based; conditions: Staphylococcus aureus, Mueller-Hinton Broth, 24 h at 35 °C
# Protocol: as §1, §2, §3, §4
# [14] = system: S. aureus PC1 (Meth^S)(lac^+); assay: Broth microdilution MIC (NCCLS); format: cell-based; conditions: Staphylococcus aureus, 24 h
# Protocol: as §1, §2, §3, §4
# [15] = system: S. aureus Spain #356 (Meth^R); assay: Broth microdilution MIC (NCCLS); format: cell-based; conditions: Staphylococcus aureus, Mueller-Hinton Broth, 24 h at 35 °C
# Protocol: as §1, §2, §3, §4
# [16] = system: E. faecium A491 (Amp^R); assay: Broth microdilution MIC (NCCLS); format: cell-based; conditions: Enterococcus faecium, Mueller-Hinton Broth, 24 h at 35 °C
# Protocol: as §1, §2, §3, §4
# [17] = In vitro stability of compounds in rat serum; format: in vitro ADME; conditions: % loss after 60 min exposure to rat serum as determined by HPLC; 37 °C
# Protocol: In general, compounds from the class of 7-acylamino-3-heteroarylthio-3-cephem carboxylic acids have higher chemical reactivity and lower stability towards chemical or enzymatic decomposition than most typical cephalosporins. […] Results shown in Table 2 represent percentage loss of the initial amount of cephalosporin compound upon 60 min incubation in rat serum.
# Procedure for measuring degree of degradation of cephalosporin compounds in rat serum was as follows:
# Fresh control rat serum (heparinized and stored frozen) is preincubated at 37 °C for 15 min in a shaking water bath. pH is measured using test strips. 25 µL of a 2 mg/mL solution cephalosporin compound (in water) of is then added to each matrix to make 1000 µL. Solutions were incubated at 37 °C. 100ul of solution was taken out at time = 0, 15, 30, and 60 min post dose and added 200 µL 4% trichloroacetic acid, vortexed, and centrifuged for 10 min at 14,000 rpm in an Eppendorfmicrocentrifuge. 25 µL of each supernatant was injected onto HPLC. Experiment was repeated using 25 µL of a 0.2 mg/mL cephalosporin compound. Degradation is measured as the percentage of HPLC peak area at time t relative to peak area at time 0.
# HPLC conditions: Beckman Ultrasphere C18 column. 5u. 4.6mm x 25cm. 1 mL/min of 95% 0.1 M ammonium acetate, pH 6, 5% ACN going to 75% buffer/organic over 20min. UV monitored at 254 and 280 nm.
# [18] = Serum binding determination by ultrafiltration and HPLC; format: in vitro ADME; conditions: % of compound bound to serum as determined by HPLC; human serum
# Protocol: The more accurate measurement of binding of selected cephalosporin compounds was performed using HPLC as described below. […] Serum is placed in a shaking water bath preheated to 37 ± 2 °C for 5 to 10 minutes to heat serum to 37 °C. Serum pH is measured and recorded, while serum is 37 °C using pH paper. Measurements are taken twice, 3 minutes apart. […] After blowing for several minutes, serum is heated to 37 °C and measurements are taken twice, 3 minutes apart using pH paper to determine the pH. Store at 4 °C. The serum is stable for 7 days. Always check the pH before each use. • 2. Before any centrifugation, the centrifuge temperature must be adjusted to 25 ± 2 °C. Preheat the centrifuge by spinning for 45 minutes at the same speed to be used in the assay (1900 g) with two tubes of water in the rotor and the temperature set to 25 °C. When the centrifuge stops immediately check the temperature of the tubes of water with a calibrated thermometer. The temperature of the tubes of water must be 25 ± 2 °C. […] Continue spinning and measuring the temperature and adjusting the setting until the temperature is 25 ± 2 °C. • 3. Prepare blank ultrafiltrate by pipetting blank pH 7.4 serum into an Amicon Centrifree Micropartition devices, centrifuge: fixed angle rotor, 1900 g, 25 °C for 20 minutes. Heat ultrafiltrate in a shaking water bath preheated to 37 °C. Measure ultrafiltrate pH and adjust to the pH of the serum (7.4 ± 0.2). • 4. Pipette 190 ul of blank ultrafiltrate into a set of labeled 1.7 mL polypropylene microfuge tubes for 3 of each level. Pipette 10 µL of the appropriate standard stock 50, 200, 1000 µg/mL to make standards 2.5, 10, and 50 µg/mL respectively. Vortex each tube well. One set of the standard samples are mixed 1:1 with 0.2 M acetic acid and injected onto the HPLC (MSTD). These samples are the membrane standards and will be used to compare to the other standards. Pipette 190 ul of ultrafiltrate and spike with 10 ul of whatever solution (e.g. water) the standards are prepared in to make the zero standard. • 5. Pipette 475 µL of blank heated pH 7.4 serum into a set of labeled 1.7 mL polypropylene microfuge tubes for 2 of each (Serum A and Serum B). Pipette 25 µL of the 1000 µg/mL standard stock into each tube, vortex each tube well to make serum standard 50 µg/mL. Remove 100 µL of serum and deproteinate with 200 µL 4% TCA while vortexing to make serum time 0 (serum 50, T0). Place serum tubes in a shaking water bath at 37 °C for 10 minutes. Pipet 100 µL of serum out and deproteinate with 200 µL 4% TCA, to make serum time 10 min (serum 50, T10). Pipet 200 ul serum standard 50 µg/mL into an ultrafiltration device, which is not treated with TCA, to determine free drug in samples (Rat Serum 50). • 6. Transfer serum and standard samples to labeled Amicon Centrifree Micropartition filters, and centrifuge: 1900 g, 25 °C for 10 minutes. The extracted serum samples (T0 and T 10) are spun down and supernatant is loaded into HPLC vials. • 7. 100 µL of ultrafiltrate sample and 100 µL of 0.2 M acetic acid were mixed together to stabilize the compound in ultrafiltrate. • 8. Transfer entire stabilized ultrafiltrate solution to a labeled autoinjector HPLC vial cap with Teflon septa, and inject on HPLC.
# Peak height or area is used in a weighted linear regression.
# High levels of binding to human serum proteins limits the concentration of compound available for antibacterial activity in the body.
smiles,measurement,setting,value
"C[C@@H](O)[C@H]1C(=O)N2C(C(=O)O)=C(SCCN=CN)C[C@H]12 [Imipenem, reference compound]",ED50,"[1]; mice, S. aureus ATCC 13709 ip, subcutaneous treatment at 0 and 2 hrs post-challenge, probit method, no unit given for ED50 (doses in mg/kg)",0.07 mg/kg
same,MIC,[2],0.015 µg/mL
same,MIC,[3],32 µg/mL
same,MIC,[4],≤ 0.25 µg/mL
same,MIC,[5],≤ 0.25 µg/mL
same,MIC,[6],4 µg/mL
same,MIC,[7],1 µg/mL
same,MIC,[8],≤ 0.008 µg/mL
same,MIC,[9],≤ 0.008 µg/mL
same,MIC,[10],4 µg/mL
same,MIC,[11],0.5 µg/mL
same,MIC,[12],64 µg/mL
same,MIC,[13],32 µg/mL
same,MIC,[14],0.015 µg/mL
same,MIC,[15],32 µg/mL
same,MIC,[16],> 128 µg/mL
same,degraded at 1 h,[17],20%
"CN[C@H](CC(C)C)C(=O)N[C@H]1C(=O)N[C@@H](CC(N)=O)C(=O)N[C@H]2C(=O)N[C@H]3C(=O)N[C@H](C(=O)N[C@H](C(=O)O)c4cc(O)cc(O)c4-c4cc3ccc4O)[C@H](O)c3ccc(c(Cl)c3)Oc3cc2cc(c3O[C@@H]2O[C@H](CO)[C@@H](O)[C@H](O)[C@H]2O[C@H]2C[C@](C)(N)[C@H](O)[C@H](C)O2)Oc2ccc(cc2Cl)[C@H]1O [Van, Vancomycin]",Efficacy in murine septicemia %survival,[1]; Dose 5 mg/kg,5/100%
same,Efficacy in murine septicemia %survival,[1]; Dose 10 mg/kg,10/100%
same,ED50,[1],2.41 mg/kg
same,fraction unbound,[18],0.45
